Results: article PMC11019538, “Biophysics-Guided Lead Discovery of HBV Capsid Assembly Modifiers” (ACS Infectious Diseases, 2024)
Like-named read-outs stand apart in the source and are kept apart here.

What was measured:
[1] = test system: human peripheral blood mononuclear (PBM) cells; test: MTT cytotoxicity, PBM cells; assay type: cell-based
Experimental: (§1) Human peripheral blood mononuclear (PBM), T lymphoblast CEM-CCRF (herein referred to as CEM cells), African green monkey kidney (Vero), or human liver carcinoma (HepG2) cells were tested via MTT assay using the CellTiter 96 Non-Radioactive Cell Proliferation (Promega) kit as previously described.[63]

[2] = test system: T lymphoblast CEM-CCRF (CEM) cells; test: MTT cytotoxicity, CEM cells; assay type: cell-based, human
Experimental: as §1

[3] = test system: African green monkey kidney (Vero) cells; test: MTT cytotoxicity, Vero cells; assay type: cell-based; conditions: Vero cells
Experimental: as §1

[4] = test system: human liver carcinoma (HepG2) cells; test: MTT cytotoxicity, HepG2 cells; assay type: cell-based; conditions: HepG2 cells
Experimental: as §1

[5] = test system: HBV DNA replication in HepAD38 cells; test: HBV DNA replication inhibition assay in HepAD38 cells (7 days, PCR of supernatant DNA); assay type: cell-based, hepatitis B virus; conditions: HepAD38 cells; for HBV DNA inhibition (%) at 10 µM: first round of selected compounds
Experimental: HepAD38 cells were seeded at 50,000 cells/well in collagen-coated 96-well plates. […] The experiment lasted 7 days. On day 7, total DNA was purified from the supernatant using a commercially available kit (DNeasy 96 Blood & Tissue kit, Qiagen). The HBV DNA was amplified in a polymerase chain reaction assay using LightCycler 480 II (Roche), as previously described.[63] All samples were tested in duplicate.

[6] = trial 1, read-out: EC50, trial 1
[7] = trial 2, read-out: EC50, trial 2

Structure (SMILES)	CC50 [1] [µM]	CC50 [2] [µM]	CC50 [3] [µM]	CC50 [4] [µM]	HBV DNA inhibition (%) at 10 µM [5] [%]	percent cytotoxicity (cell growth inhibition) at 100 µM ([1]; 100 µM) [%]	% cytotoxicity at 100 µM (MTT), CEM cells ([2]; 100 µM) [%]	% HBV DNA Inh. at 10 μM, trial 1 ([5]; trial 1) [%]	% HBV DNA Inh. at 10 μM, trial 2 ([5]; trial 2) [%]	EC50 [5, 6] [µM]	EC50 [5, 7] [µM]
NCc1ccc(F)c(COC2CCCC2)c1 [GT-22]	> 100	36.3	88.6	> 100	< 1	–	–	–	–	–	–
CCC(CO)Nc1nc2ccc(Cl)cc2c2ccccc12 (stereo not shown) [GT-10]	18.2	15.2	14.4	12.9	< 1	–	–	–	–	–	–
Cc1ccc(C(N)c2ccncc2)cc1 (stereo not shown) [GT-20]	> 100	> 100	> 100	> 100	< 1	–	–	–	–	–	–
Cc1c(CCN)ccc2c1[nH]c1ccccc12 [GT-6]	47.7	18.7	42.6	14.9	27.2	–	–	–	–	–	–
CC(NC(=O)c1ccccc1)c1ccccn1 (stereo not shown) [GT-25]	> 100	> 100	> 100	> 100	< 1	–	–	–	–	–	–
Cc1nc2ccccc2nc1-c1sc2ncccc2c1O [GT-37]	> 100	> 100	19	24	–	48	< 1	40	40	> 10	> 10
O=C(CC1C=Cc2ccccc2N1C(=O)c1ccccc1)c1ccccc1 (stereo not shown) [GT-8]	> 100	> 100	> 100	> 100	< 1	–	–	–	–	–	–
Clc1ccccc1C=Cc1ccnc2ccccc12 [GT-3]	34	15.4	27	51.2	40.4	–	–	–	–	–	–
N#CC(c1ccccc1)C(C(Cc1ccccc1)=NO)c1ccccc1 (stereo not shown) [GT-11]	63.9	13.3	18.9	31.6	< 1	–	–	–	–	–	–
NCc1cccc(Oc2ccccc2)c1 [GT-12]	> 100	17	> 100	> 100	< 1	–	–	–	–	–	–
OC(Cn1cnc(-c2ccccc2)c1-c1cc2ccccc2[nH]1)c1cccnc1 (stereo not shown) [GT-41]	27	12	18	10	–	–	–	< 1	< 1	> 10	> 10
CC(NC(=O)c1cccnc1)c1ccccc1 (stereo not shown) [GT-18]	> 100	> 100	> 100	> 100	< 1	–	–	–	–	–	–
c1ccc(Cn2cc(-c3cccnc3)c(-c3nc(-c4ccccc4)c(-c4ccccc4)[nH]3)n2)cc1 [GT-34]	59	11	14	16	–	–	–	< 1	< 1	> 10	> 10
CC(CC(C#N)(c1ccccc1)c1ccccc1)N1CCCCC1 (stereo not shown) [GT-2]	85.3	16.1	> 100	26.4	< 1	–	–	–	–	–	–
O=C(OCc1ccccc1)c1cccnc1 [GT-16]	> 100	> 100	> 100	> 100	1.7	–	–	–	–	–	–
Cc1ccc(-c2nc(CNC(=O)C3CCOC3)[nH]c2-c2ccccn2)cc1 (stereo not shown) [GT-43]	42	30	19	29	–	–	–	4.7	4.7	> 10	> 10
